Source: patent publication US6972319B1, “Pituitary adenylate cyclase activating peptide (PACAP)receptor 3 (R3) agonists and their pharmacological methods of use” (priority 1999, dated 2005)
No end group written: not given here.

T1: PACAP-R2 (Homo sapiens, UniProt P32241)
T1 construct: expressed in transfected cells; host or cells: CHO cells
T1 sequence (P32241 31-457): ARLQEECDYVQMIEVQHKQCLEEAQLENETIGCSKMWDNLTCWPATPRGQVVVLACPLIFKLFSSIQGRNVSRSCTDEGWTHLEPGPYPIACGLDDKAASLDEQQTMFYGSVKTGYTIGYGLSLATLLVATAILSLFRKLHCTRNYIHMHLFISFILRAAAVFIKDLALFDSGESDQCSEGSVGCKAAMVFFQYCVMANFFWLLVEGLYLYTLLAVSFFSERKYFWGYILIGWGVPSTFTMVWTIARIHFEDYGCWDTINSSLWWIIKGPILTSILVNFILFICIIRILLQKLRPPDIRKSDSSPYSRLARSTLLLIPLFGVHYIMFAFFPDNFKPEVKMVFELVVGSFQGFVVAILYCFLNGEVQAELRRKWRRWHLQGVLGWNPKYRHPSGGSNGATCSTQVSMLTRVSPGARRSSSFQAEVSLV

T2: PACAP-R3 (Homo sapiens, UniProt P41587)
T2 sequence (P41587 24-438): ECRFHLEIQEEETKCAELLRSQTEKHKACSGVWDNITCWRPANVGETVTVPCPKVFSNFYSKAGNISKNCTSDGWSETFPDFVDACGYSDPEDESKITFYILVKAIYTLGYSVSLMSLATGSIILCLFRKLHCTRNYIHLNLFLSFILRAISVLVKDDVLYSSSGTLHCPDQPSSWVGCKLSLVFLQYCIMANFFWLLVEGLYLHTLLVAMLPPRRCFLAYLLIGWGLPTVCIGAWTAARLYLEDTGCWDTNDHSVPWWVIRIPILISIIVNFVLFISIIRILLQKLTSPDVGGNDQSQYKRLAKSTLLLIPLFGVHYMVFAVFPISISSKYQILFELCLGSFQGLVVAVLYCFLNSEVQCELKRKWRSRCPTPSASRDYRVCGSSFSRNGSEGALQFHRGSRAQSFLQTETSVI

T3: PACAP-R3 (human, UniProt P41587 24-438)
T3 sequence (looked up): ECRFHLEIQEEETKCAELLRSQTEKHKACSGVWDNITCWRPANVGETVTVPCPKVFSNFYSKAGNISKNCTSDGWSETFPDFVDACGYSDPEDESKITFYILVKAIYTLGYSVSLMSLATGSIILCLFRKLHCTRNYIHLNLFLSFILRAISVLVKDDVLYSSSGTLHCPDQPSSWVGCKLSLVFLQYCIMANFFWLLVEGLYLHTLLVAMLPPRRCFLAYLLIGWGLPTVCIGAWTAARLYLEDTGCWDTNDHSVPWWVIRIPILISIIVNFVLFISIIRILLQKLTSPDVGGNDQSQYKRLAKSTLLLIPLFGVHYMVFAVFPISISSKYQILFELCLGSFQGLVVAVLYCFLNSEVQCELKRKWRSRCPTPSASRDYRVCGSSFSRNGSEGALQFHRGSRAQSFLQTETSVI


Assays:
PACAP-R2 = biological target: T1, PACAP-R2; test: Cyclic AMP SPA on CHO cells transfected with PACAP-R2; assay type: cell-based; settings: cAMP SPA, concentration at which 50% of maximum PACAP27 activity is achieved, NA = no detectable activities, read-out: R2 EC50
Procedure, shortened: (§1)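 Intracellular cAMP, quantified by scintillation proximity assay, was measured after a 15-min, 37 °C peptide incubation containing IBMX (100 μM), bacitracin and soybean trypsin inhibitor. The cells were CHO transfected with PACAP-R2 or -R3. EC50 is set against maximal PACAP27 response.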

PACAP-R3 [1] = biological target: T2, PACAP-R3; test: Cyclic AMP SPA on CHO cells expressing PACAP R3; assay type: cell-based; set-up: expressed in transfected cells; host or cells: CHO cells (Geneticin selection); settings: for EC50: cAMP SPA, CHO cells transfected with PACAP-R3, concentration at which 50% of maximum PACAP27 activity is achieved, NA = no detectable activities, read-out: R3 EC50; for R3 Selectivity: ratio of EC50 at R2 versus EC50 at R3
Procedure, shortened: as §1

PACAP-R3 [2] = biological target: T3, PACAP-R3; test: cell-based or functional assay

R3 EC50, nM (cAMP SPA) (PACAP-R3 [2]) [nM]	R3 Selectivity (PACAP-R3 [2]) [ratio]	Molecule	EC50 (PACAP-R2) [nM]	EC50 (PACAP-R3 [1]) [nM]	R3 Selectivity (PACAP-R3 [1])
		HSDAVFTDNYTRLRKQMAVKKYLNDLKKGGT [Peptide R3P14]	50	17	3
		HSDAVFTDNYTRLRKQMAVKKYLNSIKK [Peptide R3P41]	8	0.08	100
		HSDAVFTDNYTRLRKQMAVKKYLNSIKK-NH2 [Peptide R3P8]	2	1.4	1.5
		HSDAVFTDNYTRLRKQMAVKKYLNSIKKK [Peptide R3P58]	55	0.32	170
		HSDAVFTDNYTRLRKQMAVKKYLNSIKKKR [Peptide R3P57]	42	0.23	190
		HSDAVFTDNYTRLRKQMAVKKYLNSIKKKRY [Peptide R3P56]	40	0.4	100
		HSDAVFTDNYTRLRKQMAVKKYLNSILK [Peptide R3P43]	0.8	0.08	10
		HSDAVFTDNYTRLRKQMAWKKYLNSIKNKR [Peptide R3P114]	20	2	10
		HSDAVFTDNYTRLRKQMAYKKYLNSIKNKR [Peptide R3P115]	300	6	50
		HSDAVFTDNYTRLRKQVAAKKYLNSIKK [Peptide R3P62]	180	1.8	100
		HSDAVFTDNYTRLRKQVAAKKYLNSIKKKR [Peptide R3P78]	250	1.1	230
		HSDAVFTDNYTRLRKQVAAKKYLNSIKNKRY [Peptide R3P68]	130	0.5	260
		HSDAVFTDNYTRLRKQVAAKKYLNSIKNKRY [Peptide R3P79]	100		200
		HSDAVFTDNYTRLRKQVAAKKYLQSIKNK [Peptide R3P86]	90	0.8	110
		HSDAVFTDNYTRLRKQVAAKKYLQSILKK [Peptide R3P85]	5	0.18	30
		HSDAVFTDNYTRLRKQVAAKKYLQSILKKR [Peptide R3P84]	2.5	0.06	40
		HSDAVFTDNYTRLRKQVAAKKYLQSILNK [Peptide R3P94]	9	0.09	100
		HSDAVFTDNYTRLRKQVAAKKYLQSILNKR [Peptide R3P93]	6	0.14	40
		HSDAVFTDNYTRLRKQVAAKKYLQSILNKRY [Peptide R3P92]	2	0.02	100
		HSDAVFTDNYTRLRKQVAVKKYLQSILKK [Peptide R3P89]	0.9	0.06	15
		HSDAVFTDNYTRLRKQVAVKKYLQSILKKR [Peptide R3P88]	0.89	0.08	12
		HSDAVFTDNYTRLRKQVAVKKYLQSILKKRY [Peptide R3P87]	0.6	0.2	3
		HSDAVFTDQYTRLRKQLAAHKYLNTIKNKRY [Peptide R3P75]	> 150	0.3	>500
		HSDAVFTDQYTRLRKQMAAKKYLNSIKNKRY [Peptide R3P71]	56	0.09	660
		HSDAVFTENYTKLRKQLAAKKYLNDLKK [Peptide R3P5]	200	7	30
		HSDAVFTENYTRLRKQMAVKKYLNSLKK-NH2 [Peptide R3P7]	2	4	0.5
		HSDGIFTDKYSRYRKQMAVKKYLAAVL-NH2 [PAC9]	0.9	0.7	1

R3 EC50, nM (cAMP SPA) (PACAP-R3 [2]) [nM]	R3 Selectivity (PACAP-R3 [2]) [ratio]	Molecule	EC50 (PACAP-R2) [nM]	EC50 (PACAP-R3 [1]) [nM]	R3 Selectivity (PACAP-R3 [1])
		HSDGIFTDSYKRYRKQMAVKKYLAAVL-NH2 [PAC11]	10	140	0.1
		HSDGIFTDSYSRKRKQMAVKKYLAAVL-NH2 [PAC13]	3	0.5	6
		HSDGIFTDSYSRYEKQMAVKKYLAAVL-NH2 [PAC14]	110	1.6	70
		HSDGIFTDSYSRYREQMAVKKYLAAVL-NH2 [PAC15]	2.4	0.2	12
		HSDGIFTDSYSRYRKKMAVKKYLAAVL-NH2 [PAC16]	0.2	0.2	1
		HSDGIFTDSYSRYRKQKAVKKYLAAVL-NH2 [PAC17]	0.25	0.15	1.6
		HSDGIFTDSYSRYRKQMAVEKYLAAVL-NH2 [PAC20]	20	0.7	30
		HSDGIFTDSYSRYRKQMAVKEYLAAVL-NH2 [PAC21]	2.5	0.24	10
		HSDGIFTDSYSRYRKQMAVKKKLAAVL-NH2 [PAC22]	2	15	0.1
		HSDGIFTDSYSRYRKQMAVKKYLAAKL-NH2 [PAC26]	0.25	0.3	1
		HSDGIFTDSYSRYRKQMAVKKYLAAVK-NH2 [PAC27]	1.5	1.1	1.4
		HSDGIFTDSYSRYRKQMAVKKYLAAVKKYLAAVRHG-NH2 [Peptide R3P17]	9	4	2
		HSDGIFTDSYSRYRKQMAVKKYLAKVL-NH2 [PAC25]	0.13	0.04	3
		HSDGIFTDSYSRYRKQMAVKKYLKAVL-NH2 [PAC24]	0.3	0.2	1.5
		HSDGIFTDSYSRYRKQMAVKKYLSAVRHGQT-NH2 [Peptide R3P15]	12	5	2
		HSDGIFTKSYSRYRKQMAVKKYLAAVL-NH2 [PAC8]	43	47	1
		HSDKIFTDSYSRYRKQMAVKKYLAAVL-NH2 [PAC4]	45	7	6
0.2	300	HSDAVFTDNYTRLRKQMAAKKYLNSIKNKT [R3P168]			
200		HSDAVFTDDYTRLRKEVAAKKYLESIKDKRY [R3P173]			
0.4		HSDAVFTDNYTRLRKQMAAKKYLNSIKNKY [R3P171]			
0.5	300	HSDAVFTDNYTRLRKQMAAKKYLNSIKNKP [R3P165]			
1		HSDAVFTDNYTRLRKQMAAKKYLNSIKNKS [R3P167]			
0.2	300	HSDAVFTDNYTRLRKQMAAKKYLNSIKNKV [R3P169]			
10	97	ESDGIFTDSYSRYRKQMAVKKYLAAVL-NH2 [PAC1]			
2.6	29	HSDAVFTDNYTRLRKQVAAKKYLQSIKNKRYSWCEPGWCR [R3P172]			
34		HKDGIFTDSYSRYRKQMAVKKYLAAVL-NH2 [PAC2]			
